These results are taken from PubChem BioAssay (NCI).

The term TGI denotes the concentration giving total growth inhibition. Read a high TGI as less potent growth arrest.

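Values below derive from 48-hour exposures of cells grown in 96-well plates, with endpoints linearly interpolated between the two concentrations bracketing the appropriate inhibition level. TGI is the concentration that stops growth completely.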

Common to all, as to test: DTP human tumour cell line panel, 48 h
The test system of assay [1] is UACC-62 melanoma.
Assay [2] concerns MDA-MB-231 breast.
The subject of assay [3] is SF-295 CNS.
The test system of assay [4] is SR leukemia.
Assay [5] relates to A549 NSCLC.
For assay [6], the system named is T-47D breast.
Assay [7] deals with U251 CNS.
Assay [8] deals with OVCAR-8 ovarian.
Assay [9] concerns OVCAR-4 ovarian.
Assay [10] has as its system UACC-257 melanoma.

Take `CC(C)(C)c1cc(C(=O)C2Cc3ccccc3C(=O)O2)cc(C(C)(C)C)c1O` (stereo not given): the TGI in assay [1] was 26.3 µM; in [2] it was 31.7 µM; in assay [3], 35.1 µM; in [4], 51.2 µM; in assay [5] it was 54.4 µM; in assay [6] it was greater than 100 µM. Besides, the concentration for total growth inhibition (TGI) in [7] was found to be 22.2 µM; in assay [8], 33.3 µM; in assay [9] it was 65.7 µM; in assay [10] it was 23.9 µM.
Take `COC1=CC(=O)c2c(cc(COP(N)(=O)N(CCCl)CCCl)n2C)C1=O` (stereo not given): the concentration for total growth inhibition (TGI) in assay [1] was 2.16 µM; in assay [2], 8.42 µM; in [3], 2.82 µM; in assay [4], 1.31 µM; in [5], 4.31 µM; in assay [6] it was 4.29 µM. In addition, the concentration for total growth inhibition (TGI) is 6.77 µM in assay [7], 3.2 µM in [8], 16.3 µM in assay [9] and 14.2 µM in assay [10].
As for `CCNC(=O)NNc1ncnc2c1c(-c1ccc(Cl)cc1)cn2-c1ccc(C)cc1`, the concentration for total growth inhibition (TGI) in assay [1] is 33.3 µM; in assay [2], 34.8 µM; in assay [3] it was 30.5 µM; in assay [4], 43.3 µM; in [5], 37.2 µM; in assay [6], 49.6 µM. Also, the TGI was 31.3 µM in assay [7], 28.8 µM in assay [8], 40.8 µM in assay [9] and 35.7 µM in assay [10].
As for `Cc1ccc(S(=O)(=O)/N=C2/N(C)CCCS2(=O)=O)cc1`, the concentration for total growth inhibition (TGI) is greater than 100 µM in assay [1]; 31.9 µM in assay [2]; greater than 100 µM in [3]; greater than 100 µM in assay [4]; greater than 100 µM in assay [5]; greater than 100 µM in assay [6]. In addition, the concentration for total growth inhibition (TGI) in assay [7], in assay [8], in assay [9] and in assay [10] was greater than 100 µM in each case.
`O=S(c1ccccc1)C1CC2CC3(CCC21O)OCCO3` (stereo not given): the concentration for total growth inhibition (TGI) in assay [1], in assay [2], in [3], in assay [4], in assay [5] and in assay [6] was greater than 100 µM each time. Moreover, the TGI in [7], in [8], in [9] and in [10] was greater than 100 µM each time.
Take `COc1cc(NS(C)(=O)=O)ccc1NCc1cnc2ccc3[nH]cccc3c12`: the total growth inhibition concentration (TGI) in assay [1] is 35.8 µM; in assay [2] it was 51 µM; in assay [3], 53.4 µM; in assay [4] it was 28 µM; in [5], greater than 96.3 µM; in assay [6] it was 50.8 µM. Moreover, the TGI in assay [7] was greater than 81.2 µM; in [8] it was 75.7 µM; in [9], 65.7 µM; in assay [10], 32 µM.
Consider `Nc1ncnc2c1ncn2C1OC(CO)C(O)C1NS(=O)(=O)c1ccccc1` (stereo not given), for which the TGI in assay [1], in [2], in assay [3], in [4], in assay [5] and in assay [6] was greater than 100 µM in each case. Moreover, the TGI in assay [7], in [8], in [9] and in [10] was greater than 100 µM in each case.
Take `C=CC(C)(C)C1(CC(OC)OC)C(=O)N(C)c2ccccc21` (stereo not given): the TGI in assay [1], in assay [2], in assay [3], in [4], in assay [5] and in assay [6] was greater than 25 µM in each case. In addition, the TGI in assay [7], in assay [8], in assay [9] and in assay [10] was greater than 25 µM each time.
In the case of `CNC(=O)c1cc2nc3ccccc3c(=O)n2c2ccccc12`, the TGI in [1], in assay [2], in assay [3], in assay [4], in assay [5] and in assay [6] was greater than 10 µM in each case. Besides, the concentration for total growth inhibition (TGI) in assay [7], in assay [8], in assay [9] and in [10] was greater than 10 µM in each case.
In the case of `C=CCOC(=O)c1c(C)n([O-])c2cc(Cl)c(Cl)cc2[n+]1=O`, the TGI in assay [1] was determined as 41.3 µM; in assay [2] it was 55 µM; in [3], 86.9 µM; in [4], 13.1 µM; in assay [5] it was 87.7 µM; in assay [6] it was 49.3 µM. Besides, the TGI is greater than 100 µM in assay [7], 41.9 µM in assay [8], 19.1 µM in assay [9] and 37.9 µM in assay [10].
On to `C=C1C(=O)[C@]23C[C@H]1C[C@@H](O)[C@H]2[C@]1(COC3=O)[C@@H](OC(C)=O)CC[C@@](C)(COC(C)=O)[C@H]1C=O`, for which the total growth inhibition concentration (TGI) was greater than 50 µM in assay [1]; greater than 50 µM in assay [2]; greater than 50 µM in assay [3]; greater than 50 µM in assay [4]; greater than 50 µM in [5]; 25.4 µM in assay [6]. Further, the concentration for total growth inhibition (TGI) in [7], in assay [8], in assay [9] and in assay [10] was greater than 50 µM each time.
On to `c1ccc(C(c2cccc3c2ccc2ccccc23)C(c2ccccc2)c2cccc3c2ccc2ccccc23)cc1` (stereo not given), for which the total growth inhibition concentration (TGI) in assay [1], in assay [2], in assay [3], in assay [4], in assay [5] and in assay [6] was greater than 100 µM throughout. In addition, the TGI in assay [7], in assay [8], in assay [9] and in assay [10] was greater than 100 µM throughout.
Consider `CC(C)NCC(O)c1ccc(O)c2ncccc12` (stereo not given), for which the TGI in assay [1] is greater than 100 µM; in assay [2] it was greater than 100 µM; in [3], greater than 100 µM; in assay [4] it was 67.6 µM; in assay [5], greater than 100 µM; in assay [6] it was greater than 100 µM. In addition, the TGI in assay [7], in assay [8], in [9] and in assay [10] was greater than 100 µM throughout.
On to `COc1cc(OCc2nc3cc(C(F)(F)F)ccc3nc2-c2ccccc2)cc(OC)c1OC`, for which the TGI in assay [1], in [2], in [3], in assay [4], in assay [5] and in assay [6] was greater than 100 µM each time. The TGI in [7], in assay [8], in assay [9] and in assay [10] was greater than 100 µM each time.
In the case of `O=C(/C=C/c1ccc2c(c1)OCO2)NCCc1ccco1`, the TGI in [1], in assay [2], in assay [3], in [4], in [5] and in assay [6] was greater than 100 µM each time. The TGI in [7], in assay [8], in assay [9] and in assay [10] was greater than 100 µM each time.
Turning to `N#C/C=c1/c2ccccc2n2nc3ccccc3c12`, the concentration for total growth inhibition (TGI) in [1] is greater than 100 µM; in [2] it was 16.6 µM; in assay [3] it was greater than 100 µM; in assay [4], greater than 100 µM; in [5] it was greater than 100 µM; in assay [6], greater than 100 µM. Also, the TGI in assay [7] was 30.9 µM; in assay [8], greater than 100 µM; in [9], 31.5 µM; in [10], greater than 100 µM.
As to `CC(=O)NNC(=S)/N=C\c1c(O)c2ccccc2oc1=O`, the TGI in [1], in assay [2], in assay [3], in [4], in assay [5] and in assay [6] was greater than 100 µM in each case. The TGI in assay [7], in assay [8], in [9] and in assay [10] was greater than 100 µM each time.
As to `O=C(/C=C/c1ccc(OCc2ccccc2)cc1)NCc1ccc(C(=O)NCc2ccccc2)cc1`, the total growth inhibition concentration (TGI) in assay [1], in assay [2], in assay [3], in assay [4], in assay [5] and in assay [6] was greater than 100 µM throughout. In addition, the TGI in assay [7], in assay [8], in assay [9] and in assay [10] was greater than 100 µM in each case.
Turning to `COc1ccc(C(=O)c2c(-c3ccccc3NC(=O)C(F)(F)F)[nH]c3ccccc23)cc1`, the TGI stood at 25.8 µM in [1]; 21.4 µM in assay [2]; 25.5 µM in assay [3]; 8.62 µM in assay [4]; 20.2 µM in assay [5]; 9.05 µM in assay [6]. Moreover, the TGI in [7] turned out to be 7.17 µM; in assay [8], 23.5 µM; in [9], 19.2 µM; in [10], 29.9 µM.
Turning to `NC(=S)Nc1ccc2c(c1)oc1ccccc12`, the TGI in [1], in assay [2], in [3], in [4], in assay [5] and in assay [6] was greater than 100 µM throughout. Also, the TGI in [7], in assay [8], in [9] and in assay [10] was greater than 100 µM in each case.
